SMILES strings stand for the structures. “Also recorded” adds a separate entry of the source. Like-named read-outs stand apart in the source and are kept apart here.

This is an account of results in US6451334B2, “Compositions and administration of compositions for the treatment of blood disorders” (priority 1997, dated 2002).

Data set [1] deals with K562 cells. The data set can be described thus: Treatment of K562 cells and analysis of globin mRNA by primer extension. The class given is cell-based, human. Particulars: for fold induction at 1000 µM: Homo sapiens, K562, 72 h, read-out: increase in γ-globin mRNA over constitutive levels in untreated control K562 cells; for stimulating γ globin compared to control cells (ranking in words) / Radioactivity Alpha Globin (α) mRNA / Radioactivity Fetal Globin (γ) mRNA / γ/α: K562 cells; for pattern of globin gene stimulation in K562 cells: α and γ globin mRNA; for Radioactivity Alpha Globin (α) mRNA / Radioactivity Fetal Globin (γ) mRNA: phosphorimager; for γ/α: ratio of globin mRNA radioactivity. The procedure:
K562 cells kindly provided by Dr. George Atweh were cultured with 10% fetal bovine serum (Sigma, St. Louis, Mo.) and RPMI media (Grand Island Biological Company, Grand Island, N.Y.) in a humidified atmosphere with 5% CO2/95% air. Compounds were tested at a final concentration of 1 mM at neutral pH and included butyric acid, phenoxyacetic acid, dimethylbutric acid, alpha-methylhydrocionamic acid, 2,3, and 4-methoxyhydrocinnamic acid, dihydrocinnamic acid, methoxycinnamic acid, methoxyacetic acid, phenylpropionic acid, amino hydrocinnamic acid, DL β- and DL-βamino-n-butyric acid, cinnamic acid, and 2 methylhydrocinnamic acid (Aldrich Chemical Company, St. Louis, Mo.). Additional compounds studied included dimethylhydroxy acetic acid, dimethylpropionic acid, dimethylphenoxyacetic acid, and dimethylmethoxyacetic acid. After three days of culture with these agents, mRNA was purified and α, β, and γ globin mRNA was analyzed by primer extension using oligonucleotide primers and quantitation on a PhosphoImager as previously described.

For data set [2], the system named is Mononuclear cells from patients with sickle cell disease or thalassemia trait. Put plainly: Erythroid colony (BFU-E) cultures in methylcellulose. The class given is cell-based, human. Particulars: 0.2-0.5 mM, optimal growth factors; for % Increase over control: BFU-E. The procedure: Mononuclear cells from patients with sickle cell disease or thalassemia trait were isolated on Ficoll Hypague, washed, and cultured in methylcellulose media with optimal concentrations of hematopoietic growth factors IL-3, GM-CSF, Stem Cell Factor, IL6, 3 U/ml Eiythropoietin, insulin, bovine serum albumin, and 0.2-0.5 mM concentrations of test compounds of derivatives of cinnamic acid and hydrocinnamic acid. […] The following illustrates some representative cultures: […]

For data set [3], the system named is c-myb, c-myc, actin, and histone H3. The data set can be described thus: Northern blots of growth related genes in 32D cells. The class given is cell-based, murine. Particulars: low IL-3, 1 mM, Northern blot. Here is the method:
Cell proliferation stimulation is transgenic mice, baboons, human cell culture, and a murine multi-lineage cell line by the active compounds, genes whose expression is increased early in cell proliferation induced by hematopoietic growth factors such as IL-3 and erythropoietin were examined. RNA was extracted from 32D cells treated with the compounds for one day and for 11 days. Northern blots were prepared with probes for the early growth related genes c-myb and c-myc and beta actin and histone H3 were used as controls. Increased expression of c-myb occurs transiently, and early, when growth is induced by erythropoietin and IL-3.
The first lane is from cells cultured in no IL-3, lane 2 in 25 U/ml murine IL3 and lanes 3-18 have low IL-3 concentration (0.5 U/ml) plus test compounds. […] All compounds were tested here at 1 mM. […] 20 ug of total RNA from each sample were subjected to Northern blot analysis using specific probes for c-myb, c-myc, actin, and histone H3. One day and 11-day samples from the same treated cells were quantitated by PhosphoImager.

Data set [4] has as its system cell viability. Put plainly: DNA fragmentation assays (cell viability). The class given is cell-based. An excerpt: Normal cell viability, the viability of an untransformed or uninfected cell, can be determined from analyzing the effects of the composition on one or more biological processes of the cell. Detrimental interference with one or more of these cellular processes becomes significant when the process becomes abnormal. Examples of quantitatable and qualifiable biological processes include the processes of cell division, protein synthesis, nucleic acid (DNA or RNA) synthesis, nucleic acid (principally DNA) fragmentation and apoptosis. Others processes include specific enzyme activities, the activities of the cellular transportation systems such as the transportation of amino acids by system A (neutral), system B (acidic) or system C (basic), and the expression of a cell surface protein. […] Abnormal cell division, for example, can be mitosis which occurs too rapidly, as in a malignancy, or unstably, resulting in programmed cell death or apoptosis, detected by increased DNA degradation. The determination of abnormal cell viability can be made on comparison with untreated control cells. […] Increased cell viability can be determined by those of ordinary skill in the art using, for example, DNA fragmentation analysis. […] Determinations of increased or decreased viability can also be concluded from an analysis of the results of multiple different assays. Where multiple tests provide conflicting results, accurate conclusions can still be drawn by those of ordinary skill based upon the cell type, the correctness or correlation of the tests with actual conditions and the type of composition.

Data set [5] concerns 32D cells. Put plainly: Proliferation studies using 32D cells at low IL-3. In kind it is cell-based, murine. Particulars: 0.5 U/ml IL-3, 1 mM; listed as butyrate. Here is the method:
32D cells were cultured in RPMI media with 10% fetal bovine serum (Sigma, St. Louis, Mo.), […] glutamine (GIBCO), and murine IL3 (20 U/ml) (Biosource International). Growth factor controls used included the standard concentration of IL-3 required for proliferation of these cells (25 U/ml) and a 50-fold lower concentration (0.5 U/ml), and erythropoietin (3 U/ml) or G-CSF ( U/ml), (Amgen, Thousand Oaks, Calif.). The test compounds were added at final concentrations of 1 mM. As a cell density of 2.5−10×10^5 is necessary for growth of this cell line, this density was maintained by passing the cells at three day intervals or by concentrating the cells when apoptosis occurred. Proportions of cells which were viable or apoptotic, and the fraction of cells in each part of the cell cycle was assessed by incubating the cells with Trypan blue and enumeration, and with propidium iodide incubation and FACScan analysis as previously described.
The effects of the representative compounds which have been synthesized or selected for resistance to beta oxidative metabolism and glucuronidation in stimulating γ globin gene expression in a human erythroid-like cell line and for their effects on cell growth utilizing a multi-lineage murine hematopoietic cell line, 32D. This cell line is dependent on high concentrations of IL-3 for growth. […]

Data set [6] relates to mice transgenic for a human beta globin locus YAC containing a silenced gamma globin gene. Put plainly: In vivo experiments in mice transgenic for the human beta globin gene locus. The procedure:
Three prototype compounds, methylhydrocinnamic acid (MHCA), phenoxyacetic acid (PAA), and dimethylbutyric acid PMB), were administered at doses from 100 to 250 mg/kg in two daily doses by intraperitoneal injection to mice transgenic for a human beta globin locus YAC containing a silenced gamma globin gene. Reticulocytes, newly synthesized red blood cells, were counted daily and non-alpha globin in MRNA was analyzed by Rnase protection. Only 50 microliters of blood were removed daily for testing. A 5 to 10-fold increase in reticulocytes and a 1.7-2.4 fold increase in gamma globin mRNA was observed within one week of therapy with the three protype compounds. In contrast, control mice to which normal saline was administered, with the same degree of phlebotomy for testing, had no significant changes in reticulocytes or globin in mRNA.

Data set [7] in a line: in vivo. Particulars: monkey, po.
Protocol: Chronic indwelling venous and arterial catheters which were maintained using sterile technique for blood sampling. Compounds were administered by nasogastric tube and blood was collected to determine drug plasma levels at regular intervals following single oral doses. […] The test compounds were analyzed after ether extraction of the plasma, separation by HPLC, and quantitated by comparison to a spilled internal standard of heptanoic acid according to previously described methods.
Data set [8] concerns system A transport of amino acids. Put plainly: System A transport of amino acids. The class given is cell-based. An excerpt:
Normal cell viability, the viability of an untransformed or uninfected cell, can be determined from analyzing the effects of the composition on one or more biological processes of the cell. Detrimental interference with one or more of these cellular processes becomes significant when the process becomes abnormal. Examples of quantitatable and qualifiable biological processes include the processes of cell division, protein synthesis, nucleic acid (DNA or RNA) synthesis, nucleic acid (principally DNA) fragmentation and apoptosis. Others processes include specific enzyme activities, the activities of the cellular transportation systems such as the transportation of amino acids by system A (neutral), system B (acidic) or system C (basic), and the expression of a cell surface protein. […] Abnormal cell division, for example, can be mitosis which occurs too rapidly, as in a malignancy, or unstably, resulting in programmed cell death or apoptosis, detected by increased DNA degradation. The determination of abnormal cell viability can be made on comparison with untreated control cells. Compositions preferably increase normal cell viability. Increased cell viability can be determined by those of ordinary skill in the art using, for example, DNA fragmentation analysis. […]

The mark [9] stands for this setting: primer extension, 1 mM, three days of culture, FIG. 1.

`COc1cc(C=CC(=O)O)cc(OC)c1O` [ST 44, 3,5 dimethoxy 4-hydroxy cinnamic acid]: the fold induction at 1000 µM in data set [1] (setting [9]) was 2.4 to 26. In data set [2], the “Mean BFU-E/culture 4 cultures averaged (per 0.2 million cells)” value is given as 215 and the “% Increase over control” value is given as 11%.
In turn, `NC(CC(=O)O)c1ccccc1` (stereo not drawn) [ST 30, β-aminohydrocinnamic acid] showed a c-myb induced in data set [3] of 2 fold.
On to `CCCC(=O)OCC` [butyric acid ethyl ester], for which the “cell viability / DNA fragmentation” value in data set [4] is reported as “reduce DNA fragmentation”.
Take `CCCC(=O)O` [Butyric acid, butyric acid, reference compound]: the fold induction at 1000 µM in data set [1] (setting [9]) is 2. In data set [1] (1 mM), the “stimulating γ globin compared to control cells (ranking in words)” value was “most active”. Besides, the “pattern of globin gene stimulation in K562 cells” value (from here on “pattern”) in data set [1] was “stimulated expression of both α and γ globin MRNA”. Moreover, in data set [5], the “effect on 32D cells with low IL-3” value is “decreased cell proliferation and cell death; also recorded: Cells die”.
As to `Cc1ccccc1CCC(=O)O` [ST 33, 2 methyl hydrocinnamic acid], the fold induction at 1000 µM in data set [1] (setting [9]) is 2.4 to 26. Further, in data set [1] (1 mM), the “stimulating γ globin compared to control cells (ranking in words)” value is “most active”, the “Radioactivity Alpha Globin (α) mRNA” value stood at 89473, the “Radioactivity Fetal Globin (γ) mRNA” value stood at 1388899 and the γ/α turned out to be 15.5. Further, in data set [2], the “Mean BFU-E/culture 4 cultures averaged (per 0.2 million cells)” value came out at 212 and the “% Increase over control” value is given as 20.5%.
Turning to `COc1ccccc1C=CC(=O)O` [ST 32, 2-methoxycinnamic acid], in data set [1] (setting [9]), the fold induction at 1000 µM fell in the range of 2.4 to 26. For the same compound, in data set [1] (1 mM), the “stimulating γ globin compared to control cells (ranking in words)” value was “most active”, the “Radioactivity Alpha Globin (α) mRNA” value came to 36751, the “Radioactivity Fetal Globin (γ) mRNA” value is reported as 957146 and the γ/α was found to be 26.0.
For `COc1ccc(OC)c(CC(=O)O)c1` [ST 40, 2,5 {dimethoxy phenyl} acetic acid], in data set [1] (1 mM), the “Radioactivity Alpha Globin (α) mRNA” value turned out to be 85941, the “Radioactivity Fetal Globin (γ) mRNA” value is on record as 1240100 and the γ/α worked out at 14.4.
In the case of `COc1ccc(C=CC(=O)O)cc1` [4 Methoxycinnamic acid], in data set [2], the “Mean BFU-E/culture 4 cultures averaged (per 0.2 million cells)” value is reported as 191 and the “% Increase over control” value is reported as 8.5%.
On to `CCC(N)C(=O)O` (stereo not drawn) [alpha amino-n-butyric acid, reference compound], for which the “inducibility of gamma (fetal) globin in the transgenic mice” value in data set [6] (mouse, in vivo) was “has not been readily inducible”.
For orientation: half-life means the time in which the quantity being followed falls by half. A low value points to rapid decline. Turning to `O=C(O)COc1ccccc1` [PAA, phenoxyacetic acid], in data set [1], the fold induction at 1000 µM was in the range of 2.4 to 26; the “pattern” value is “stimulated expression of both α and γ globin MRNA”. In addition, in data set [1] (1 mM), the “stimulating γ globin compared to control cells (ranking in words)” value is “most active”, the “Radioactivity Alpha Globin (α) mRNA” value came to 507148, the “Radioactivity Fetal Globin (γ) mRNA” value came out at 2755891 and the γ/α came to 5.4. Also, in data set [7], the half-life was 6.5 h. For the same compound, the “cell viability / DNA fragmentation” value in data set [4] was “reduce DNA fragmentation”. Further, the “system A transport of amino acids” value in data set [8] was “do not significantly alter”. Further, in data set [6] (100 to 250 mg/kg in two daily doses, intraperitoneal, within one week), the “Reticulocytes (fold increase)” value fell in the range of 2.5 to 7 fold.
With `CC(C)C(N)=O` [isobutyramide, reference compound], in data set [4], the “cell viability / DNA fragmentation” value is given as “decrease cell viability”.
In the case of `COc1ccc(CCC(=O)O)cc1OC` [ST 38, 3-3,4-dimethoxy phenyl propionic acid], in data set [1] (1 mM), the “Radioactivity Alpha Globin (α) mRNA” value is listed as 191985, the “Radioactivity Fetal Globin (γ) mRNA” value was 1858358 and the γ/α worked out at 9.7.
Turning to `COc1ccccc1/C=C\C(=O)O` [ST 34, cis-2-methoxycinnamic acid], in data set [1] (setting [9]), the fold induction at 1000 µM fell in the range of 2.4 to 26. In data set [1] (1 mM), the “Radioactivity Alpha Globin (α) mRNA” value was 105452, the “Radioactivity Fetal Globin (γ) mRNA” value is 2255627 and the γ/α is given as 21.4. In addition, the “pattern” value in data set [1] was “decreased expression of α globin”.
As for `COc1ccc(CC(=O)O)cc1OC` [ST 37, 3,4 dimethoxy phenyl acetic acid], the fold induction at 1000 µM in data set [1] (setting [9]) lay within 2.4 to 26. Besides, in data set [1] (1 mM), the “Radioactivity Alpha Globin (α) mRNA” value came to 106875, the “Radioactivity Fetal Globin (γ) mRNA” value came to 1206529 and the γ/α was found to be 11.3.
In the case of `O=C(O)/C=C/c1ccccc1` [ST 47, transcinnamic acid], the fold induction at 1000 µM in data set [1] (setting [9]) lay in the range of 2.4 to 26. In data set [2], the “Mean BFU-E/culture 4 cultures averaged (per 0.2 million cells)” value was determined as 322 and the “% Increase over control” value is 18%.
